# Experiment: In vitro antagonist activity against Thrombin induced gel-filtered platelet (GFP) aggregation at 0.15 nM.
row,SMILES,IC50
1,"N=C(N)NCCC[C@H](NC(=O)[C@H](Cc1ccc(F)c(F)c1)NC(=O)Nc1ccc2c(CN3CCCC3)cn(Cc3c(Cl)cccc3Cl)c2c1)C(=O)NCc1ccncc1 [2-[2-{3-[1-(2,6-Dichloro-benzyl)-3-pyrrolidin-1-ylmethyl-1H-indol-6-yl]-ureido}-3-(3,4-difluoro-phenyl)-propionylamino]-5-guanidino-pentanoic acid (pyridin-4-ylmethyl)-amide]",1060 nM
2,COc1ccc(C[C@H](NC(=O)Nc2ccc3c(CN4CCCC4)cn(Cc4ccc(F)cc4)c3c2)C(=O)N[C@@H](CCCNC(=N)N)C(=O)NCc2ccccc2)cc1 [2-[2-{3-[1-(4-Fluoro-benzyl)-3-pyrrolidin-1-ylmethyl-1H-indol-6-yl]-ureido}-3-(4-methoxy-phenyl)-propionylamino]-5-guanidino-pentanoic acid benzylamide],2320 nM
3,COc1ccc(C[C@H](NC(=O)Nc2ccc3c(CNC4CCCC4)cn(Cc4ccc(F)cc4)c3c2)C(=O)N[C@@H](CCCNC(=N)N)C(=O)NCc2ccccc2)cc1 [2-[2-{3-[3-Cyclopentylaminomethyl-1-(4-fluoro-benzyl)-1H-indol-6-yl]-ureido}-3-(4-methoxy-phenyl)-propionylamino]-5-guanidino-pentanoic acid benzylamide],17800 nM
4,COc1ccc(C[C@H](NC(=O)Nc2ccc3c(CN4CCCC4)cn(Cc4ccc(OC(F)(F)F)cc4)c3c2)C(=O)N[C@@H](CCCNC(=N)N)C(=O)NCc2ccccc2)cc1 [5-Guanidino-2-(3-(4-methoxy-phenyl)-2-{3-[3-pyrrolidin-1-ylmethyl-1-(4-trifluoromethoxy-benzyl)-1H-indol-6-yl]-ureido}-propionylamino)-pentanoic acid benzylamide],18200 nM
5,COc1ccc(C[C@H](NC(=O)Nc2ccc3c(CN4CCCC4)cn(Cc4c(Cl)cccc4Cl)c3c2)C(=O)N[C@@H](CCCN=C(N)N)C(=O)NCc2ccccc2)cc1 [RWJ-54003],900 nM

# The next compounds have a lower IC50 than those just listed; values first:
row,IC50,SMILES
1,370 nM,"NCC[C@H](NC(=O)[C@H](Cc1ccc(F)c(F)c1)NC(=O)Nc1ccc2c(CN3CCCC3)nn(Cc3c(Cl)cccc3Cl)c2c1)C(=O)NCc1ccccc1 [4-Amino-N-benzyl-2-[2-{3-[1-(2,6-dichloro-benzyl)-3-pyrrolidin-1-ylmethyl-1H-indazol-6-yl]-ureido}-3-(3,4-difluoro-phenyl)-propionylamino]-butyramide]"
2,570 nM,"N=C(N)NCCC[C@H](NC(=O)[C@H](Cc1ccc(F)c(F)c1)NC(=O)Nc1ccc2c(CN3CCCC3)cn(Cc3c(Cl)cccc3Cl)c2c1)C(=O)NCc1ccccc1 [(S)-2-[(S)-2-{3-[1-(2,6-Dichloro-benzyl)-3-pyrrolidin-1-ylmethyl-1H-indol-6-yl]-ureido}-3-(3,4-difluoro-phenyl)-propionylamino]-5-guanidino-pentanoic acid benzylamide]"
